Laboratory results from US20230257373A1, “QUORUM SENSING INHIBITORS AND METHODS OF USE” (priority 2020, published 2023).
“And” between values parts separate entries of the source, which are not always exact repeats. Equal values may be shown once. Read-outs that look alike come from different tables or passages of the source.

How the values were obtained:
[1] = test system: SmcR regulon; conditions: cited from earlier work
[2] = molecular target: T1, SmcR (Vibrio vulnificus, UniProt Q9L8G8); conditions: Kim et al., 2018; cited from earlier work
[3] = test system: V. campbellii, V. parahaemolyticus, and V. vulnificus; conditions: cited from earlier work
[4] = molecular target: T1, SmcR; assay: ITC analysis of SmcR interaction with inhibitors; format: binding, V. vulnificus
Excerpt: To test the validity of the modelling predictions for PTSP, we performed isothermal titration calorimetry (ITC) to determine the binding affinity of SmcR and LuxR for PTSP. […] We noted that PTSP binding to both LuxR and SmcR had lower entropy and enthalpy compared to SmcR binding to Qstatin. […] Thus, we conclude that the efficacy of PTSP inhibition in vivo in these two Vibrio species correlates to the binding affinity determined in vitro for these two proteins.
SmcR and LuxR were purified as described previously. EMSAs were conducted as described previously using oligonucleotides corresponding to the luxC and vvpE promoter sequences. ITC analysis was conducted using purified LuxR or His-tagged SmcR, each in gel-filtration buffer (25 mM Tris pH 7.5, 300 mM NaCl, 0.5 mM EDTA, 1 mM DTT, 2% DMSO). All molecules analyzed were diluted in the same buffer. The samples were degassed for 10 min by vacuum aspiration. Titrations were performed on a Nano-ITC (TA Instruments). […] Thermograms were analyzed using NanoAnalyze software with the independent binding model.

[5] = test system: PluxC-gfp reporter in V. campbellii; assay: PluxC-gfp reporter in V. campbellii strains; conditions: Vibrio campbellii
[6] = test system: PluxC-gfp reporter in V. parahaemolyticus; assay: PluxC-gfp reporter in V. parahaemolyticus strains; conditions: Vibrio parahaemolyticus
[7] = test system: PluxC-gfp reporter in V. vulnificus; assay: PluxC-gfp reporter in V. vulnificus strains; conditions: Vibrio vulnificus
[8] = test system: PluxC-gfp reporter in V. coralliilyticus; assay: PluxC-gfp reporter in V. coralliilyticus strains
[9] = molecular target: T2, V. campbellii LuxR (Vibrio harveyi, UniProt P21308); assay: E. coli dual-color bioassay (pKM699 LuxR, pJV064 reporter); format: cell-based; conditions: for Inhibition of LuxR in the E. coli bioassay (in words): GFP and mCherry reporters
T2 construct: expressed in transfected cells; host or cells: E. coli DH10B with pKM699 and reporter pJV064
Excerpt: Previously, we developed a bioassay that consists of a dual-color fluorescent reporter plasmid that reports both LuxR activities: the luxCDABE promoter is activated by LuxR and drives expression of gfp, and the VIBHAR_05222 promoter is repressed by LuxR and drives expression of mCherry (van Kessel et al., 2013b) (FIG. 2A). We used this reporter plasmid in an E. coli strain that also contains a plasmid expressing LuxR from its native promoter.
A bioassay was developed to monitor LuxR function that consists of a dual-color reporter plasmid (pJV064) that reports both activities: the luxCDABE promoter is activated by LuxR and drives expression of gfp, and the 05222 promoter is repressed by LuxR and drives expression of mCherry (van Kessel, Ulrich et al. 2013). This reporter plasmid was used in an E. coli strain that also contains a plasmid (pKM699) expressing LuxR from its native promoter. E. coli cultures containing these two plasmids were grown at 30° C. in LB medium with chloramphenicol (10 μg/ml) and tetracycline (10 μg/ml) to select for the two plasmids. Compounds were added to the cultures at a range of concentrations, and the cultures were incubated for 16 hours shaking at 30° C.
The dual-promoter fluorescence reporter assays were performed using E. coli strain DH10B containing two plasmids: 1) plasmid pJV064 containing the PluxC fused to GFP and P05222fused to mCherry to assess LuxR transcriptional regulation, and 2) plasmid pKM699 expressing V. campbellii luxR under control of its native promoter or empty vector pLAFR2.

[10] = test system: V. campbellii; assay: Growth of V. campbellii with inhibitor; format: cell-based; conditions: high concentrations
Excerpt: (§1) Many sulfonamide-containing compounds are known to target the folate synthesis pathway in bacteria and inhibit growth (bacteriostatic), and thus these “sulfa drugs” have been used as broad-spectrum antibiotics for decades (Hammoudeh et al., 2013, Roland et al., 1979). […] We also tested the stability of the inhibitors in bacterial cultures and the timing of the inhibitory effect.

[11] = test system: V. vulnificus; assay: Growth of V. vulnificus with inhibitor; format: cell-based; conditions: high concentrations
Excerpt: as §1

[12] = molecular target: T2, V. campbellii LuxR; assay: qRT-PCR and western blots in wild-type V. campbellii; format: cell-based
Excerpt: The Qstatin-treated regulon overlapped with the SmcR regulon by more than 50%, with similar gene expression fold-changes. […] This is important to note because LuxR and HapR proteins are known to autorepress their own expression. To test the effects of adding inhibitors to V. campbellii LuxR, we added 10A, 10B, and 10C to wild-type V. campbellii and used qRT-PCR and western blots to examine the effects on luxR transcript and protein levels. We also examined the transcript levels for luxC and 05222 genes that are directly activated or repressed by LuxR, respectively.
All PCR reactions were performed using Phusion HF polymerase (NEB). T4 polynucleotide kinase (T4 PNK) used in EMSAs and all other enzymes were purchased from NEB and used according to manufacturer's instructions. Site-directed mutagenesis for construction of plasmids expressing mutant proteins was carried out using the Agilent QuikChange II XL Site-Directed Mutagenesis Kit. All oligonucleotides were purchased from Integrated DNA Technologies (IDT).ALL plasmid constructs were confirmed by DNA sequencing (Eurofins). Cloning details for plasmids are available upon request. Western blot analysis was performed as previously described (van Kessel et al., 2013b), except that new anti-LuxR antibodies were generated through Cocalico against purified LuxR protein. In addition, the western blots were probed with anti-RpoB (Neoclone).
Then cells were induced with 50 μM IPTG and grown under the same conditions until cells reached an OD600 of approximately 1, at which 5 mL of cells were collected by centrifugation and frozen in liquid N2. RNA was extracted using a Trizol/chloroform extraction protocol previously described (Rutherford et al., 2011). Quantitative real-time PCR (qRT-PCR) was performed as previously described (Chaparian et al., 2016). Samples were normalized to the internal standard hfq gene. The ΔΔCT values were used to analyze data from three independent biological replicates. Symbols on graphs represent the mean values and error bars represent the standard deviations. All statistical analysis was performed with functions from GraphPad Prism version 8.

[13] = test system: Vibrio strains; assay: luxCDABE reporter across five Vibrio species; conditions: each Vibrio strain except V. cholerae
[14] = ATCC25920, read-out: Inhibition (IC50) of the PluxC-gfp reporter, Vcamp ATCC 25920
[15] = read-out: Inhibition (IC50) of the PluxC-gfp reporter, Vcamp BB120
[16] = read-out: Inhibition (IC50) of the PluxC-gfp reporter, Vcamp HY01
[17] = read-out: Inhibition (IC50) of the PluxC-gfp reporter, Vpara 12-297/B
[18] = read-out: Inhibition (IC50) of the PluxC-gfp reporter, Vpara D4
[19] = read-out: Inhibition (IC50) of the PluxC-gfp reporter, Vpara RIMD 2210633
[20] = ATCC27562, read-out: Inhibition (IC50) of the PluxC-gfp reporter, Vvul ATCC 27562
[21] = read-out: Inhibition (IC50) of the PluxC-gfp reporter, Vvul CMPC6
[22] = read-out: Inhibition (IC50) of the PluxC-gfp reporter, Vvul YJ016
[23] = read-out: Inhibition (IC50) of the PluxC-gfp reporter, Vcoral OCN 008
[24] = read-out: Inhibition (IC50) of the PluxC-gfp reporter, Vcoral OCN 014
[25] = read-out: IC50 in the bioassay (approximate)

T1 sequence (Q9L8G8 entry or part of it): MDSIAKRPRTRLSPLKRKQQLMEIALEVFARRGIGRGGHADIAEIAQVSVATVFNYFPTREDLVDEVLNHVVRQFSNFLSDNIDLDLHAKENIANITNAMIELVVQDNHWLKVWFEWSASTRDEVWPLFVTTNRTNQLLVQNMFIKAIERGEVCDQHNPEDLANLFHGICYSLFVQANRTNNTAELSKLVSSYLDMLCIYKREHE
T2 sequence (P21308 whole entry): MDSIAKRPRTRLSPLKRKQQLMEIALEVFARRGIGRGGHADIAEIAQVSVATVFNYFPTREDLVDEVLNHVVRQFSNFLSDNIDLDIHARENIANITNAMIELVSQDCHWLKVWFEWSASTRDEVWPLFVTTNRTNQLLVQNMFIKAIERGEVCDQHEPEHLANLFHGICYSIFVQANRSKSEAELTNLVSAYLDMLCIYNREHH

Structure (SMILES)	IC50 [5, 14] [nM]	IC50 [5, 15] [nM]	IC50 [5, 16] [nM]	IC50 [6, 17] [nM]	IC50 [6, 18] [nM]	IC50 [6, 19] [nM]	IC50 [7, 20] [nM]	IC50 [7, 21] [nM]	IC50 [7, 22] [nM]	IC50 [8, 23] [nM]	IC50 [8, 24] [nM]	Inhibition of LuxR in the E. coli bioassay (in words) [9]	IC50 [9, 25]	also measured
O=S(=O)(c1ccc(Br)s1)n1cccn1 [Qstatin, 1-((5-bromothiophen-2-yl)sulfonyl)-1H-pyrazole, reference compound]	800	4000	1200	1700	3000	2300	500	2100	900	11600	22200	inhibited LuxR activity	5000 to 10000 nM and 10000 to 20000 nM	Off-target effects in the ΔsmcR strain ([1]; RNA-seq, ΔsmcR strain): no significant off-target effects; Overlap of Qstatin-treated regulon with the SmcR regulon ([1]; RNA-seq): more than 50%; Increase of smcR transcript levels ([1]; wild-type V. vulnificus): 2.5 fold; Effect on SmcR DNA binding affinity [2]: very little effect; Inhibition of pathogenesis in shrimp infection assay [3]: inhibits pathogenesis; Ka [4]: 1.36e+06 M⁻¹; ΔG [4]: -8.37 kcal/mol and -8.365 kcal/mol; ΔH [4]: -19.58 kcal/mol; ΔS [4]: −157.30 J/mol · K; −TΔS [4]: 11.21 kcal/mol; Kd ([4]; 25° C., read-out: Kd): 738 nM; IC50 ([5]; read-out: IC50, V. campbellii BB120, luxCDABE): 1300 nM; IC50 ([6]; read-out: IC50, V. parahaemolyticus RIMD2210633, luxCDABE reporter plasmid): 2800 nM; IC50 ([7]; ATCC27562, read-out: IC50, V. vulnificus ATCC 27562, luxCDABE reporter plasmid): 400 nM; IC50 ([8]; read-out: IC50, V. coralliilyticus OCN008, luxCDABE reporter plasmid): 3600 nM; IC50 ([9]; Table 2, titration, 16 hours, read-out: Inhibition (IC50) of GFP production by LuxR in E. coli bioassay): 5000 nM
O=S(=O)(c1ccc(Cl)s1)n1ccc(-c2ccccc2)n1 [Compound 10C, 1-((5-chlorothiophen-2-yl)sulfonyl)-3-phenyl-1H-pyrazole]	90	710	160	1040	1280	680	0.75	60.5	5.46	1070	2420	most potent	1000 to 2000 nM	Growth rate or growth yield [10]: did not alter growth rate or growth yield; Growth rate or growth yield [11]: did not alter growth rate or growth yield; luxC transcripts ([12]; qRT-PCR, to levels in a ΔluxR strain): significantly decreased; 05222 transcripts ([12]; qRT-PCR, wild-type cultures): significantly increased; LuxR protein level ([12]; western blot, wild-type V. campbellii): visible increase; IC50 values lower than Qstatin [13]: ~10 fold
